Results reported in patent US20100278730A1, “Non-Invasive Molecular Imaging of Cellular Histone Deacetylase Substrate Using Magnetic Resonance Spectroscopy (MRS) or Positron Emission Tomography (PET)” (priority 2007, published 2010).
Values belong to the compound of their own block, whether it stands above or below them.

Tests used:
[1] = system: HDACs 1-11; assay: HDAC fluorimetric assay; format: biochemical; details: for histone deacetylase activity in the presence of the substrate: FIG. 21, BPS#3 as control
Method: Material: Assay buffer, Assay developer, HDAC substrate
(§1) Source: BPS Bioscience, Inc.
Add reaction mixtures to low binding black plate. These include: HDAC assay buffer, Bovine serum albumin solution, HDAC substrate, and HDAC enzymes.
Incubate at 37° C. for 30 minutes.
(§2) Stop the reaction by addition of HDAC Assay developer (2×) and incubate plate at room temperature for 15 minutes.
(§3) Read sample in a microtiter-plate reading fluorimeter at excitation wavelength in the range of 350-380 nm and detect in emission range of 440-460 nm.

[2] = system: sirtuins 1-5; assay: Sirtuin fluorimetric assay; format: biochemical
Method: Sirtuin Fluorimetric Assay
Material: substrate available from manufacturer
as §1
Add reaction mixtures to low binding black plate. These include: Sirtuin, HDAC assay buffer, Bovine serum albumin solution, NAD+ solution and Sirtuin substrate.
Incubate at 37° C. for 30 minutes
as §2, §3

[3] = system: MB435 human breast carcinoma tumor; assay: PET of [18F]-FAHA in MB435 carcinoma-bearing nu/nu rats, with Gjedde-Patlak analysis (Example 5); format: in vivo, rat
Method: MB435 human breast carcinoma cells were grown as described in Example 3, above. About 10×10^6 MB435 cells were injected subcutaneously in female nu/nu rat. When tumor size was 15 mm in diameter, PET imaging studies with [^18F]-FAHA were conducted in five rats using microPET R4 (Concorde). The animals were injected intravenously with […] (1mCi) of [^18F]-FAHA and dynamic scanning (0-60 min) was performed. During the imaging session the rats were anesthetized with 2.0 vol % isoflurane/oxygen inhalation and continuously heated with a heating lamp.
Two days after the initial study, another [^18F]-FAHA PET imaging with an […] (SAHA) was performed. The animals were given SAHA (100 mg/kg) intraperitoneally 1 hour prior to injection of the [^18F]-FAHA.
Both a Gjedde-Patlak plot and a Logan plot were taken. […] The linearity of the plot was checked and a plasma/reference region used as an input. […]

[4] = system: MB435 tumor xenografts; assay: PET of [18F]-FAHA in MB435 tumor xenograft-bearing nude rats (second Example 4); format: in vivo, rat
Method: Methods: [^18F]-FAHA was synthesized with high specific activity according to a method developed at M. D. Anderson Cancer Center. Human breast cancer cells, cell line MB435, grown as described in Example 3, were used to grow tumor xenografts in nude rats. Ten million cancer cells were injected subcutaneously in the neck area of six nude rats. When tumors were 1 cm in diameter, animals were anesthetized, injected with [^18F]-FAHA (37 MBq) and PET imaging was performed (dynamic) up to 60 min post-injection. Two days after the initial imaging, another PET imaging with [^18F]-FAHA was performed using a […] (SAHA). The animals were given SAHA (50 mg/kg) intraperitoneally 1 hour prior to injection of the radiotracer.

[5] = system: HDAC activity in rat brain; assay: PET imaging of HDAC activity in rat brain using [18F]-FAHA (Example 6); format: in vivo
Method: Methods: [^18F]-FAHA was synthesized according to the methods developed in our laboratory in high specific activity. Imaging studies with [^18F]-FAHA were conducted in five rats using a PET scanner under isoflurane inhalation anesthesia. The animals were injected intravenously with 37 MBq of [^18F]-FAHA and dynamic scanning PET (0-60 min) was performed. During the imaging session, the rats were anesthetized with 1-1.5 vol % isoflurane/oxygen inhalation and continuously heated with a heating lamp. Two days after the initial study, another PET imaging was performed with [^18F]-FAHA using an […] (SAHA). Each animal was given SAHA (50 mg/kg), intraperitoneally 1 hour prior to injection of the [^18F]-FAHA.
In Table 6, “baseline” refers to brain uptake of FAHA without blocking by SAHA.

[6] = system: MDA-MB435 human breast carcinoma cells; assay: In vitro uptake study of [18F]-FAHA in human breast carcinoma cell line; format: cell-based
Method: MDA-MB435 human breast carcinoma cells were grown into flasks with D-MEM/F-12 medium supplemented with 10% FBS and antibiotics at 37° C. in humidified atmosphere with 5% CO2. Cells were kept in the log phase proliferative activity. 5×10^6 of cells in 15 mL of medium were distributed into each tissue culture dish and were incubated at least for 24 hours.
Next day, culture medium was replaced to fresh medium again and was incubated for 3 hours. Then […] of [^18F]-FAHA in […] of saline was added to each dish followed by incubation for 5, 10, 15, 30, 60, and 120 min. At each time point, cells were scraped and were centrifuged at 3,000 rpm for 1 min. After centrifugation, […] of supernatant medium and cells were weighed and their radioactivity measured using a gamma counter. Then the ratio of radioactivity between 1 gram of cells and 1 gram of medium was calculated.
For an inhibition study, cells were incubated in medium with […] of SAHA from 1 hour before adding [^18F]-FAHA.

[7] = 30 min post-injection, with SAHA 50 mg/kg i.p. 1 hour prior
[8] = 30 min post-injection, without SAHA
[9] = 60 min post-injection, with SAHA 50 mg/kg i.p. 1 hour prior
[10] = 60 min post-injection, without SAHA
[11] = during 60 min post-injection, without SAHA
[12] = 5 min post-injection, without SAHA

SMILES: O=C(CF)NCCCCCC(=O)Nc1ccccc1 [FAHA, 6-(fluoroacetamido)-1-hexanoicanilide]
qualitative rank of the specificity of various HDACs for the substrate [1]: HDAC-9>HDAC-5>HDAC-8>HDAC-4>HDAC-6>HDAC-1

histone deacetylase activity in the presence of the substrate [1]: inhibited the activity of all HDACs
SMILES: CCCC(=O)NCCCCCC(=O)Nc1ccccc1 [PAHA, 6-(ethylacetamido)-1-hexanoicanilide]
qualitative rank of the specificity of various sirtuins (and HDAC-3) for the substrate [2]: Sirt-2>Sirt-5>Sirt-4>Sirt-3>Sirt-1 >>HDAC-3

histone deacetylase activity in the presence of the substrate [1]: inhibited the activity of all HDACs
SMILES: CC(C)CC(=O)NCCCCCC(=O)Nc1ccccc1 [Iso-PAHA, 6-(isopropylacetamido)-1-hexanoicanilide]
qualitative rank of the specificity of various sirtuins (and HDAC-3) for the substrate [2]: Sirt-2>Sirt-5>Sirt-4>Sirt-3>Sirt-1

histone deacetylase activity in the presence of the substrate [1]: inhibited the activity of all HDACs
SMILES: O=C(Cc1ccccc1)NCCCCCC(=O)Nc1ccccc1 [PhAHA, 6-(phenylacetamido)-1-hexanoicanilide]
qualitative rank of the specificity of various sirtuins (and HDAC-3) for the substrate [2]: Sirt-2 >>Sirt-3>Sirt-4>Sirt-5>Sirt-1

SMILES: O=C(CCCCCNC(=O)C(F)(F)F)Nc1ccccc1 [3FAHA, 6-(trifluoroacetamido)-1-hexanoicanilide]
qualitative rank of the specificity of various HDACs for the substrate [1]: HDAC-9>HDAC-7>HDAC-5>HDAC-8>HDAC-4>HDAC-11

SMILES: O=C(C[18F])NCCCCCC(=O)Nc1ccccc1 [[^18F]-FAHA, 6-([^18F]-fluoroacetamide)-1-hexanoicanilide]
Tumor-to-muscle uptake ratio ([3]; Baseline, 5 min): 2.01 +/− 0.57
Tumor-to-muscle uptake ratio ([3]; Baseline, 10 min): 2.05 +/− 0.76
Tumor-to-muscle uptake ratio ([3]; Baseline, 15 min): 2.08 +/− 0.83
Tumor-to-muscle uptake ratio ([3]; Baseline, 30 min): 2.20 +/− 0.95
Tumor-to-muscle uptake ratio ([3]; Baseline, 60 min): 2.38 +/− 1.11
Tumor-to-muscle uptake ratio ([3]; Inhibition: SAHA 100 mg/kg i.p. 1 hour prior, 5 min): 1.43 +/− 0.15
Tumor-to-muscle uptake ratio ([3]; Inhibition: SAHA 100 mg/kg i.p. 1 hour prior, 10 min): 1.50 +/− 0.15
Tumor-to-muscle uptake ratio ([3]; Inhibition: SAHA 100 mg/kg i.p. 1 hour prior, 15 min): 1.46 +/− 0.16
Tumor-to-muscle uptake ratio ([3]; Inhibition: SAHA 100 mg/kg i.p. 1 hour prior, 30 min): 1.47 +/− 0.12
Tumor-to-muscle uptake ratio ([3]; Inhibition: SAHA 100 mg/kg i.p. 1 hour prior, 60 min): 1.47 +/− 0.11
Tumor uptake [4, 7]: 0.70 ± 0.04 % ID/g
tumor-to-muscle (T/M) ratio [4, 7]: 1.52 ± 0.13
Tumor uptake [4, 8]: 0.78 ± 0.13 % ID/g
tumor-to-muscle (T/M) ratio [4, 8]: 1.80 ± 0.17
Tumor uptake [4, 9]: 0.71 ± 0.02 % ID/g
tumor-to-muscle (T/M) ratio [4, 9]: 1.64 ± 0.10
Tumor uptake [4, 10]: 0.79 ± 0.13 % ID/g
tumor-to-muscle (T/M) ratio [4, 10]: 1.95 ± 0.19
tumor uptake achieved [4, 11]: approximately 0.8 % injected dose (ID)/g
tumor-to muscle ratio reached [4, 11]: 1.95
Brain uptake ([5]; 5 min post-injection, with SAHA 50 mg/kg i.p. 1 hour prior): 0.33 ± 0.05 % ID/g
Brain uptake [5, 12]: 0.44 ± 0.03 % ID/g
brain-to-muscle (B/M) ratio [5, 12]: 2.56 ± 0.33
Brain uptake [5, 9]: 0.23 ± 0.04 % ID/g
brain-to-muscle (B/M) ratio [5, 9]: 1.03 ± 0.08
Brain uptake [5, 10]: 0.40 ± 0.03 % ID/g
brain-to-muscle (B/M) ratio [5, 10]: 2.10 ± 0.63
brain-to muscle ratio reached ([5]; at 5 min post-injection, without SAHA): 1.95
brain uptake reached ([5]; without SAHA): 0.44 % injected dose/g
ratio of radioactivity between 1 gram of cells and 1 gram of medium ([6]; Baseline, 5 min): 1.95 +/− 0.13
ratio of radioactivity between 1 gram of cells and 1 gram of medium ([6]; Baseline, 10 min): 2.09 +/− 0.15
ratio of radioactivity between 1 gram of cells and 1 gram of medium ([6]; Baseline, 15 min): 2.11 +/− 0.12
ratio of radioactivity between 1 gram of cells and 1 gram of medium ([6]; Baseline, 30 min): 2.02 +/− 0.11
ratio of radioactivity between 1 gram of cells and 1 gram of medium ([6]; Baseline, 60 min): 1.84 +/− 0.14
ratio of radioactivity between 1 gram of cells and 1 gram of medium ([6]; Baseline, 120 min): 1.38 +/− 0.12
ratio of radioactivity between 1 gram of cells and 1 gram of medium ([6]; Inhibition: 10 mM of SAHA from 1 hour before [18F]-FAHA, 5 min): 1.16 +/− 0.03
ratio of radioactivity between 1 gram of cells and 1 gram of medium ([6]; Inhibition: 10 mM of SAHA from 1 hour before [18F]-FAHA, 10 min): 1.16 +/− 0.01
ratio of radioactivity between 1 gram of cells and 1 gram of medium ([6]; Inhibition: 10 mM of SAHA from 1 hour before [18F]-FAHA, 15 min): 1.16 +/− 0.03
ratio of radioactivity between 1 gram of cells and 1 gram of medium ([6]; Inhibition: 10 mM of SAHA from 1 hour before [18F]-FAHA, 30 min): 1.16 +/− 0.04
ratio of radioactivity between 1 gram of cells and 1 gram of medium ([6]; Inhibition: 10 mM of SAHA from 1 hour before [18F]-FAHA, 60 min): 1.15 +/− 0.01
ratio of radioactivity between 1 gram of cells and 1 gram of medium ([6]; Inhibition: 10 mM of SAHA from 1 hour before [18F]-FAHA, 120 min): 1.13 +/− 0.02
